# According to US6388089B1, “Brassinosteroid biosynthesis inhibitors” (Riken, priority 1998, dated 2002):
# Experiments:
# [1] = test system: dwarfed rice plant (Oryza sativa cv. Tan-ginbozu); assay: rice leaf lamina inclination bioassay, whole plant method; format: in vivo
# Method: In the figure, “Angle” indicates an inclination angle; and the results are indicated with “Cont” for control (no treatment); “CT” for cathasterone (100 ng); “TE” for teasterone (100 ng); and “BL” for brassinolide (0.1 ng) wherein each dose per plant is shown. Generally, the biological activity of brassinosteroids is often evaluated by the in vitro rice leaf lamina inclination bioassay (explantation method: Wada et al., Plant Cell Physiol., 22, pp.323-325, 1981; Takatsuto, J. Chromat. A., 658, pp.3-15, 1994) which is highly sensitive and reliable. However, this conventional method is not suitable for analyzing the mechanism of action of brassinosteroid biosynthesis inhibitors. Recently, Fujioka et al. reported a method (whole plant method) in which the rice leaf lamina inclination bioassay is improved as an […] system. This method reflects the actual biosynthesis process of brassinosteroids by administration of various precursors of brassinolide. The inhibitory action of the compound of the present invention against the brassinolide biosynthesis was evaluated by the explantation method and the whole plant method. The rice leaf lamina inclination bioassay was performed essentially according to the procedure reported by Fujioka et al. as mentioned above by using a dwarfed rice plant (Oryza sativa cv. Tan-ginbozu). Seeds were immersed in water for 2 days at 28° C., and germinated seeds were subjected to selection of those having a uniform coleoptile length (about 1 to 2 mm). Five germinated seeds were planted on 30 ml of 1% agar medium contained in a glass jar (inner diameter: 26 mm×60 mm), and incubated under the aforementioned conditions for 3 days. Each test compound for the bioassay was dissolved in ethanol and placed on a lamina in an amount of […] by using a microsyringe. After the plants were incubated under the same growth conditions for 2 days, the external angle between the leaf lamina and its sheath was measured by using an annular protractor. Thirty plants in total (6 jars) were used for each treatment.
# Arabidopsis = Arabidopsis assay with addition of brassinolide precursors; format: in vivo
# Method: (§1) The Arabidopsis germination assay was performed as follows. Seeds of wild-type and det were treated at a low temperature (2° C.) for 2 days, and the surfaces were sterilized with 1% NaOCl solution for 2 minutes and washed seven times with sterilized distilled water. The seeds were sown on 1% agar solid medium containing 0.5×Murashige and Skoog (1962) salt and 1.5% (w/v) sucrose in a plastic plate in the presence or absence of the test compound. The wild-type plant and det2 plant were grown in a growth chamber for 16 hours under a light condition (240 mE/m2s) and for 8 hours under a dark condition (25° C.). For the screening experiment, the plate was sealed with Parafilm (American National Can Co., Ltd., Chicago, Ill., USA). For the restoration experiment that required a longer experimental period, the seeds were sown on 1% agar solid medium containing 0.5×Murashige and Skoog (1962) salt and 1.5% (w/v) sucrose in Agripot (Kirin Brewery Co., Ltd.). The plants were grown in a growth chamber for 16 hours under a light condition (240 mE/m2s) and for 8 hours under a dark condition (28° C.).
# In order to confirm the action of RMB-61 also in the Arabidopsis assay, the seeds were grown with addition of the aforementioned brassinolide precursors, and recovery of the growth retardation caused by the RMB-61 treatment was observed. […] If RMB-61 is a specific inhibitor against the oxidation of cathasterone, it is expected that the morphological traits of the treated plants have similarities to the phenotypes of the mutants such as cpd (Szekeres et al., Cell, 85, pp.171-182, 1996). It is further expected that the action of RMB-61 will disappear when typhasterol, castasterone or brassinolide is administered, and in addition, the cpd phenotypes caused by brassinosteroids will disappear.
# [2] = test system: dwarfed rice plant (Oryza sativa cv. Tan-ginbozu); assay: rice leaf lamina inclination bioassay, explantation method; format: in vivo; conditions: RMB-61 1 μg/plant; FIG. 1
# [3] = test system: Arabidopsis (wild-type, Colombia); assay: Arabidopsis germination assay; format: in vivo
# Method: Arabidopsis mutants such as det2 (de-etiolation) and cpd (constitutive photomorphogenesis and dwarfism) show strong dwarfism manifested as curled leaves in deep green. Although this phenotype disappears when brassinolide is administered externally, other plant hormones such as IAA and gibberellin are ineffective. Based on these findings, the compound of the present invention (Compound 1 obtained in Example 1) was used in Arabidopsis (wild-type, Colombia) germination assay. Screening was performed under a light condition with criteria whether or not the compound generates abnormality 1) which is morphologically similar to mutants in the brassinosteroid biosynthesis and 2) which disappears when brassinolide is administered. It was also examined whether or not the morphological change induced by the test compound was restored to the morphology of wild-type by addition of braassinolide under a dark condition.
# as §1
# [4] = test system: rice (Oryza sativa cv. Koshihikari); assay: rice growth bioassay (rice elongation test); format: in vivo; conditions: for growth of the rice plant (length of shoots): in vivo
# Method: Further, rice growth bioassay was performed as follows. Seeds of rice (Oryza sativa cv. Koshihikari) were immersed in tap water for 2 hours, and then 10 seeds were immersed in 2 ml of 10 mM sodium acetate buffer (pH 5.4) containing 10 mM CaCl2 filled in a sterilized 15-ml test tube in the presence or absence of a test compound. The plants were grown in a growth chamber for 16 hours under a light condition (240 mE/m2s) and for 8 hours under a dark condition (25° C.). The plants were collected and the length of shoots was measured.
# endogenous castasterone = conditions: side effect; cited from earlier work
# vessel elements = conditions: cited from earlier work
Compound,"effect on the inclination action by teasterone, typhasterol and castasterone ([1]; RMB-61 5 μg/plant, FIG. 2)","effect on the action of cathasterone (inclination angle) ([1]; RMB-61 5 μg/plant, cathasterone 100 ng, FIG. 2)",response of the rice plant to brassinosteroid after adding teasterone or brassinolide ([1]; rice plant in which the effect of cathasterone was negated by RMB-61),greening effect on administration of brassinosteroids (Arabidopsis; brassinosteroids except for cathasterone),greening of plants (Arabidopsis; under weak light),growth retardation in the presence of cathasterone (Arabidopsis; with cathasterone),"action of RMB-61 (growth retardation) in presence of brassinosteroids (Arabidopsis; with teasterone, 3-deoxoteasterone, typhasterol, castasterone or brassinolide)",inhibition of the action of brassinolide (inclination angle) [2],"induction of dwarfism ([3]; at 10^−6 M, among the test compounds)",concentration at which shapes of the plants significantly resemble det2 mutant ([3]; dose-effect test),dwarfism / morphological change on simultaneous administration of brassinolide ([3]; with brassinolide),growth of the rice plant (length of shoots) [4],effect on the gibberellin treatment ([4]; with gibberellin),amount of endogenous castasterone (endogenous castasterone),differentiation of vessel elements induced by brassinolide (vessel elements)
"CC(O)(c1ccccc1)C(Cc1ccc(Cl)cc1)n1cncn1 (centres unmarked) [Compound 1, 4-(4-chlorophenyl)-2-phenyl-3-(1,2,4-triazoyl)butan-2-ol]",failed to offset,inhibited the action of cathasterone,restored,eliminated,promoted greening,maintained,strongly inhibited the action of RMB-61,absolutely no inhibition,most potent induction of dwarfism,≥ 10^−5 M,negated,no effect,completely failed to effect the gibberellin treatment,–,–
CC(C)(C)C(O)/C(=C\c1ccc(Cl)cc1)n1cncn1 (centres unmarked) [Uniconazol],–,–,–,–,–,–,–,–,–,–,–,strong growth retardation action,–,slight reduction,inhibits differentiation of vessel elements
"CC(C)(C)[C@@H](O)[C@@H](Cc1ccc(Cl)cc1)n1cncn1 [paclobutrazol, reference compound]",–,–,–,–,–,–,–,–,–,–,–,elongation retardation action,–,–,–
